Columns and labels:
Tubulin [1] = test: Inhibition of tubulin polymerization (unknown origin); assay type: protein-complex assay, Homo sapiens
Histone deacetylase 2 [2] = molecular target: T1, Histone deacetylase 2 (Homo sapiens, UniProt Q92769); test: Inhibition of human recombinant HDAC2 extracted from baculovirus infected Insect cells using Ac-Lys-Tyr-Lys (acetyl)-AMC as substrate incubated for 24 hrs by fluorescence analysis; parameters: species or system Insect cell
A549 [3] = test: Cytotoxicity against human A549 cells assessed as reduction in cell growth measured for 72 hrs by MTT assay; assay type: functional, cell-based; settings: A549, 72 h
Histone deacetylase 1 [4] = molecular target: T2, Histone deacetylase 1 (Homo sapiens, UniProt Q13547); test: Inhibition of human recombinant FLAG/His-tagged HDAC1 using fluorogenic substrate by fluorescence microplate reader assay
Tubulin [5] = test: Inhibition of tubulin polymerization (unknown origin) by fluorescence based assay; assay type: protein-complex assay, Homo sapiens
[6] = molecular target: T3, Protein deacetylase HDAC6 (Homo sapiens, UniProt Q9UBN7); test: Inhibition of FLAG/His-tagged human recombinant HDAC6 extracted from baculovirus infected Sf9 cells […] by fluorescence based analysis
T3 sequence (Q9UBN7 whole entry): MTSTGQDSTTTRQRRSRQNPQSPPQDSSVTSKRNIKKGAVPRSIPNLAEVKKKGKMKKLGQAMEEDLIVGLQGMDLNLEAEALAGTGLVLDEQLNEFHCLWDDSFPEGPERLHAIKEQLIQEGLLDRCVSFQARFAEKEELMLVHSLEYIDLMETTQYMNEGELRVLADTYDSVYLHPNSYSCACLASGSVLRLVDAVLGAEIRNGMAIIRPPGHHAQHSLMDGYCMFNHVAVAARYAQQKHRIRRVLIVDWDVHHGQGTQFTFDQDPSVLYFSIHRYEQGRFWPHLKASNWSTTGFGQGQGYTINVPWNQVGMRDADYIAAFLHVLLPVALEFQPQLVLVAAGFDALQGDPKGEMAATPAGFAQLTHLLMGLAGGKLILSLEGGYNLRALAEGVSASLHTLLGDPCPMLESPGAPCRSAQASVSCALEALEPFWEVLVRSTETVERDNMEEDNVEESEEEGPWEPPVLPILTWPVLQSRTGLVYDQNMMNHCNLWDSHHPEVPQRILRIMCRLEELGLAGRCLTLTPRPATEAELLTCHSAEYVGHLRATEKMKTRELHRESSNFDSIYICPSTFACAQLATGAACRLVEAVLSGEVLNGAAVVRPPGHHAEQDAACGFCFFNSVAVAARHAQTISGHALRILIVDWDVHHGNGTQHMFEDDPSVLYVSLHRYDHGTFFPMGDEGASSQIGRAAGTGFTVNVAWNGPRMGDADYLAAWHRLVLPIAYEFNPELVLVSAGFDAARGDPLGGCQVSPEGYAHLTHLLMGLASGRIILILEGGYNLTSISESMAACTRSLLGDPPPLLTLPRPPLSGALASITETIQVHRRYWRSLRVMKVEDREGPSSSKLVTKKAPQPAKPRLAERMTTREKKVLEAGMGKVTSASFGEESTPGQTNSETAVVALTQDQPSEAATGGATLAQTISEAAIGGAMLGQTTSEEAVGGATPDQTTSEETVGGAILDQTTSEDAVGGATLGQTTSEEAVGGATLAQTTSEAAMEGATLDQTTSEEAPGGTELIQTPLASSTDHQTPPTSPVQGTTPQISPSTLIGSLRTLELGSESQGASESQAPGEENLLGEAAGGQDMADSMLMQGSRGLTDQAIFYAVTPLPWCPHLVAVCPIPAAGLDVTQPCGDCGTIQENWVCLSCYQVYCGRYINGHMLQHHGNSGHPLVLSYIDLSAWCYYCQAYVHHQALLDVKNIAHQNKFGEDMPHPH

UO-31 = test: Antiproliferative activity against human UO-31 cells assessed as reduction in cell viability by MTT assay; assay type: functional, cell-based
T47D = test: Antiproliferative activity against human T47D cells assessed as reduction in cell viability by MTT assay; assay type: functional, cell-based
MCF7 [7] = test: Antiproliferative activity against human MCF7 cells assessed as reduction in cell viability incubated for 72 hrs by MTT assay; assay type: functional, cell-based; settings: MCF7, 72 h
HepG2 = test: Antiproliferative activity against human HepG2 cells assessed as reduction in cell viability incubated for 72 hrs by MTT assay; assay type: functional, cell-based; settings: HepG2, 72 h
Tubulin (Homo sapiens) = Tubulin (Homo sapiens) (UniProt P68371+Q9H4B7+P0DPH7+P68366+Q13509+Q71U36+P04350+Q3ZCM7+P07437+P68363+Q9BQE3+Q6PEY2+Q13885+Q9BVA1+Q9BUF5); test: Inhibition of tubulin polymerization (unknown origin) at 10 uM relative to control; assay type: protein-complex assay
518A2 = test: Antiproliferative activity against human 518A2 cells assessed as reduction in cell viability incubated for 72 hrs by MTT assay; assay type: functional, cell-based; settings: 518A2, 72 h
[8] = Inhibition of bovine brain tubulin polymerization measured after 20 mins by spectrophotometric analysis; parameters: species or system Bos taurus
HCT-116 [9] = test: Antiproliferative activity against human HCT-116 cells assessed as reduction in cell viability by MTT assay; assay type: functional, cell-based
MGC-803 = test: Antiproliferative activity against human MGC-803 cells assessed as reduction in cell viability by MTT assay; assay type: functional, cell-based
KYSE-450 = test: Antiproliferative activity against human KYSE-450 cells assessed as reduction in cell viability by MTT assay; assay type: functional, cell-based
Histone deacetylase 1 [10] = molecular target: T2, Histone deacetylase 1; test: Inhibition of HDAC1 (unknown origin)
PC-3 [11] = test: Antiproliferative activity against human PC-3 cells assessed as reduction in cell viability incubated for 48 hrs by MTT assay; assay type: functional, cell-based; settings: PC-3, 48 h
PC-3 [12] = test: Antitumor activity against human PC-3 cells xenografted in nude mouse assessed as inhibition of tumor growth at 100 mg/kg, ip administered once daily for 7 days relative to control; assay type: functional; settings: PC-3, 168 h, time 7 day, read-out: TGI
HCT-116 [13] = test: Antiproliferative activity against human HCT-116 cells assessed as reduction in cell viability incubated for 48 hrs by MTT assay; assay type: functional, cell-based; settings: HCT-116, 48 h
HL-60 = test: Antitumor activity against human HL-60 cells xenografted in nude mouse assessed as inhibition of tumor growth at 100 mg/kg, ip administered once daily for 7 days relative to control; assay type: functional; settings: HL-60, 168 h, time 7 day, read-out: TGI
A549 [14] = test: Antiproliferative activity against human A549 cells assessed as reduction in cell viability incubated for 48 hrs by MTT assay; assay type: functional, cell-based; settings: A549, 48 h
[15] = molecular target: T3, Protein deacetylase HDAC6; test: Inhibition of HDAC6 (unknown origin)
A2780 = test: Antitumor activity against human A2780 cells xenografted in BALB/c nude mouse assessed as tumor growth inhibition at 25 mg/kg, ip administered once daily for 1 week relative to control; assay type: functional; settings: A2780, 168 h, time 1 weeks, read-out: TGI
HCT-116 [16] = test: Antitumor activity against human HCT-116 cells xenografted in BALB/c nude mouse assessed as tumor growth inhibition at 25 mg/kg, ip administered once daily for 1 week relative to control; assay type: functional; settings: HCT-116, 168 h, time 1 weeks, read-out: TGI
MCF7 [17] = test: Antitumor activity against human MCF7 cells xenografted in BALB/c nude mouse assessed as tumor growth inhibition at 25 mg/kg, ip administered once daily for 1 week relative to control; assay type: functional; settings: MCF7, 168 h, time 1 weeks, read-out: TGI
Histone deacetylase 1 [18] = molecular target: T2, Histone deacetylase 1; test: Inhibition of human recombinant HDAC1 using Boc-Lys(Ac)-AMC or Boc-Lys(Tfa)-AMC as substrate incubated for 1 hr by fluorescence based analysis
Histone deacetylase 2 [19] = molecular target: T1, Histone deacetylase 2; test: Inhibition of human recombinant HDAC2 extracted from baculovirus infected Sf9 insect cells using Ac-Leu-Gly-Lys(Ac)-AMC as substrate preincubated for 30 mins followed by substrate addition measured after 1 hr by fluorescence based analysis
Homo sapiens [20] = organism: Homo sapiens; test: Selectivity index, ratio of IC50 for inhibition of human recombinant HDAC1 to IC50 for inhibition of human recombinant HDAC6
Homo sapiens [21] = organism: Homo sapiens; test: Selectivity index, ratio of IC50 for inhibition of human recombinant HDAC2 to IC50 for inhibition of human recombinant HDAC6
[22] = molecular target: T3, Protein deacetylase HDAC6; test: Inhibition of human recombinant HDAC6 using Boc-Lys(Ac)-AMC as substrate preincubated for 15 mins followed by substrate addition and measured after 60 mins by fluorescence based microplate reader analysis

T2 sequence (Q13547 whole entry): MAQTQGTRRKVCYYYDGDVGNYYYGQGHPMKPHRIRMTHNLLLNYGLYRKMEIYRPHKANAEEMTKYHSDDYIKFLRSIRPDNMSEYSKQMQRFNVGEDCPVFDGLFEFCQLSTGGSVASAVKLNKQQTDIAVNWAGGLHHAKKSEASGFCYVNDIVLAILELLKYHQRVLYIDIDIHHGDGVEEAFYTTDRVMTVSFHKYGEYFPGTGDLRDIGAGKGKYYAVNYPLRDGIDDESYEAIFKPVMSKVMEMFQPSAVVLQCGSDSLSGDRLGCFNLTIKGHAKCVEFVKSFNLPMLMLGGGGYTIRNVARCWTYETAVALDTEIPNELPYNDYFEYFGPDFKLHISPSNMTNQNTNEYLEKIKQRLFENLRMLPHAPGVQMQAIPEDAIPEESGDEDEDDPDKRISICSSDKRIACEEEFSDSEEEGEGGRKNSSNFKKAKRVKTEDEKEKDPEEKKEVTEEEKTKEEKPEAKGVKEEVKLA
T1 sequence (Q92769 whole entry): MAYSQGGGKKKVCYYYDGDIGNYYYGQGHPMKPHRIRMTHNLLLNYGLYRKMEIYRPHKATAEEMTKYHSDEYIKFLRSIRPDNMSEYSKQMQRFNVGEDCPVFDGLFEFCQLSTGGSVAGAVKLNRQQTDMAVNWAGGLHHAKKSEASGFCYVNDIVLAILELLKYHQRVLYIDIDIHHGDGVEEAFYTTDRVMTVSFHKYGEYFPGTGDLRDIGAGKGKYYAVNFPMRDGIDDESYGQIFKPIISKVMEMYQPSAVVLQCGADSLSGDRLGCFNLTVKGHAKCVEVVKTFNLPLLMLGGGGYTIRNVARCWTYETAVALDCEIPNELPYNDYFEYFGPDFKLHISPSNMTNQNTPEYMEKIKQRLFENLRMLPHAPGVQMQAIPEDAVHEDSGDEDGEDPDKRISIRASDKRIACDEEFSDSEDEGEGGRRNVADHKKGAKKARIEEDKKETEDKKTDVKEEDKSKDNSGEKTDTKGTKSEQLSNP

COc1ccc2c(C(=O)c3cc(OC)c(OC)c(OO)c3)c[nH]c2c1
IC50 (Tubulin [1]): 2.8 µM

COc1cc([C@@H]2c3cc4c(cc3C[C@H]3COC(=O)[C@@H]32)OCO4)cc(OC)c1OC(=O)CC(=O)Nc1ccc(C(=O)Nc2ccccc2N)cc1
IC50 (Histone deacetylase 2 [2]): 1.73 µM

COc1cc([C@@H]2c3cc4c(cc3C[C@H]3COC(=O)[C@@H]32)OCO4)cc(OC)c1OC(=O)CC(=O)NCc1ccc(C(=O)Nc2ccccc2N)cc1
IC50 (A549 [3]): 0.04 µM

CNC(=O)CCCCOc1nc(-c2ccc(OC)cc2)cc(-c2cc(OC)c(OC)c(OC)c2)c1C#N
IC50 (Histone deacetylase 1 [4]): 0.0732 µM
IC50 (Tubulin [5]): 3.52 µM
IC50 [6]: 0.084 µM
IC50 (UO-31): 3.52 µM
IC50 (T47D): 5.5 µM

COc1ccc2c(C)c(C(=O)c3cc(OC)c(OC)c(OC)c3)oc2c1
IC50 (Tubulin [1]): 0.62 µM

COc1cc(/C=C/C(=O)c2ccc(NC(=O)c3ccccc3CN3C(=O)c4ccccc4C3=O)cc2)cc(OC)c1OC
IC50 (MCF7 [7]): 1.88 µM
IC50 (Tubulin [1]): 2.32 µM
IC50 (HepG2): 1.62 µM

COc1ccc(-c2cccc(-c3cc(OC)c(OC)c(OC)c3)n2)cc1O
inhibition (Tubulin (Homo sapiens)): 32%

COc1ccc(-c2ocnc2-c2cc(Br)c(OC)c(OC)c2)cc1OCCCC(=O)NO
IC50 (518A2): 0.71 µM

COc1cccc(C(=O)c2oc3cc(OC)c(C#CC(=O)NO)cc3c2C)c1
IC50 [8]: 0.42 µM

COc1ccc(CN(C(=O)CC2CCC(C(=O)Nc3ccccc3N)CC2)c2cc(OC)c(OC)c(OC)c2)cc1O (stereo not given)
IC50 (HCT-116 [9]): 0.172 µM
IC50 (MGC-803): 0.039 µM
IC50 (Tubulin [1]): 3.64 µM
IC50 (KYSE-450): 0.254 µM
IC50 (Histone deacetylase 1 [10]): 0.525 µM

COc1ccc2c(C(=O)c3cc(OC)c(OC)c(OO)c3)cn(S(=O)(=O)c3cccc(/C=C/CC(=O)NO)c3)c2c1
IC50 (PC-3 [11]): 0.033 µM
inhibition in vivo at 100 mg/kg (PC-3 [12]): 31.1%
IC50 (HCT-116 [13]): 0.044 µM
inhibition in vivo at 100 mg/kg (HL-60): 40.9%
IC50 (A549 [14]): 0.073 µM
IC50 [15]: 0.276 µM

COc1ccc(-c2cccc(-c3cc(OC)c(OC)c(OC)c3)n2)cc1CCC(=O)NO
IC50 (Tubulin [1]): 0.117 µM

COc1ccc(N(C)c2nc(C)nc3ccccc23)cc1OCCCC(=O)NO
inhibition in vivo at 25 mg/kg (A2780): 77.4%
inhibition in vivo at 25 mg/kg (HCT-116 [16]): 60.4%
inhibition in vivo at 25 mg/kg (MCF7 [17]): 50.5%

COc1ccc2c(C(=O)c3cc(OC)c(OC)c(OO)c3)cn(Cc3ccc(C(=O)NO)cc3)c2c1
IC50 (Histone deacetylase 1 [18]): 0.573 µM
IC50 (Histone deacetylase 2 [19]): 1.41 µM
Ratio IC50 (Homo sapiens [20]): 8.89
Ratio IC50 (Homo sapiens [21]): 21.8
IC50 [22]: 0.065 µM

Reference: ChEMBL document CHEMBL6153023, “Tubulin/HDAC dual-target inhibitors: Insights from design strategies, SARs, and therapeutic potential” (Eur J Med Chem, 2025)
